Results taken from patent US5135943A, “1H-imidazole derivative compounds and pharmaceutical compositions containing the same” (priority 1984, dated 1992).
Converted amounts (≈) assume the structure as drawn.

Tests used:
Malasezzia furfur = assay: MIC by two-fold dilution, Malasezzia furfur; type: cell-based; details: 20 strains
Method: (§1) Minimum Inhibitory Concentrations (MICS) of Sertaconazole and Miconazole against 107 yeasts, 47 dermatophytes and 4 fungi were determined by a two-fold dilution method.

Trichophyton rubrus = assay: MIC by two-fold dilution, Trichophyton rubrus; type: cell-based; details: 10 strains, read-out: Minimum Inhibitory Concentration
Method: as §1

[1] = Comparison of acute toxicity of Sertaconazole and Miconazole (Table IV); type: in vivo
Method: (§2) Oral, intraperitoneal and subcutaneous acute toxicity of sertaconazole and miconazole have been investigated. LD50 in mouse and rat, male and female, were measured.

Candida albicans = assay: MIC by two-fold dilution, Candida albicans; type: cell-based
Excerpt: (§3) A number of compounds with antimycotic and/or fungicidal properties, which are useful in pharmaceutical compositions, are currently known. These include the commercially successful Miconazole having the formula II [drawing 2] Miconazole has a structure chemically similar to the 1H-imidazole derivative compounds of the invention. Miconazole is effective against a number of yeasts, dermatophytes and fungi. This effectiveness can be measured by culturing these microorganisms in vitro and applying a preparation containing the antimycotic compound, Miconazole. The results of this type of in vitro experiment is expressed in terms of the Minimum Inhibitory Concentration (MIC), i.e. the minimum concentration which inhibits the growth of the microorganism. For example, the MIC for Miconazole against a particular Candida albicans strain is found to be 10.7 micrograms/milliliter. The effectiveness of Miconazole as an antimycotic compound is measured in vivo by applying a suspension containing the drug to the skin of a number of animals and measuring the proportion of animals on which growth of the microorganism is inhibited as a function of time. Typically, after 25 days, about 1/4 of the animals were cured, when treated with a cream containing 2 % by weight Miconazole. Of course, any pharmaceutical preparation for treating a disease in a human must satisfy certain toxicity requirements. […] Toxicity tests have been performed on the IH-imidazole derivative compounds of the invention and on Miconazole and other known compounds having antimycotic properties. In toxicity tests the LD50 (the dose at which 50 % mortality occurs) is measured.
as §1

Candida tropicalis = assay: MIC by two-fold dilution, Candida tropicalis; type: cell-based; details: 10 strains, read-out: Minimum Inhibitory Concentration
Method: as §1

rats = assay: Chronic toxicity in rats; type: in vivo, rat; details: even at dosage levels of 300 mg/kg
[2] = Prolonged subacute toxicity in rats; type: in vivo, rat; details: rat, in vivo, po
Method: (§4) In a study of prolonged subacute toxicity of Miconazole in rats, among other effects, significant hepatomegalias in females with a dosage of under 30 mg/kg p.o. and in males with a dosage of under 60 mg/kg p.o. were observed.

cutaneous mycosis = assay: Randomized double blind clinical trials, cutaneous mycosis; details: 2 % cream (nitrate salts)
Method: Human clinical trials were performed with Sertaconazole nitrate and Miconazole nitrate acid addition salts. Randomized double blind trials were carried out with 502 patients suffering from cutaneous mycosis as confirmed by microscopic examination and microbiological culture. 247 patients were treated with 2 % Sertaconazole cream and the remaining 255 patients were treated with 2 % Miconazole cream. All patients received scheduled treatment for 28 days and were followed up for an additional 28 days for possible relapses.

[3] = system: Trichophyton mcntagrophytes; assay: Dermal infection in albino female guinea pigs by Trichophyton mentagrophytes; type: in vivo, guinea pig; details: for % microbiological healing / Negative Cultures to Total Cultures: 2% cream
Excerpt: as §3
Dermal infection in albino female guinea pigs by Trichophyton mcntagrophytes has been studied. Animals were distributed in three groups: a) a control group of infected untreated animals; b) a scrtaconazole group of infected and treated animals; and c) a miconazole group of infected and treated animals. Animals were depleted and a 0.4 ml suspension of the microorganism was applied on the depleted area. Treatment with each of the test drugs was made by application of 1 g of 2% cream on the depleted area on the 4th, 5th and 6th day after infection.

[4] = system: Scopulariopsis brevi-caulis; assay: MIC by two-fold dilution, Scopulariopsis brevicaulis; type: cell-based
Method: as §1

Candida s.p. = assay: MIC by two-fold dilution, Candida s.p.; type: cell-based
Method: as §1

[5] = Acute toxicity (LD50) in mouse, three administration routes; details: in vivo, males
Excerpt: as §3
Toxicity of Sertaconazole, Microazole and Martin's compounds 1, 2 and 3, as shown below, has been tested by standard methods. Both acute toxicity, subacute toxicity and chronic toxicity were studied
as §2

Microsporum canis = assay: MIC by two-fold dilution, Microsporum canis; type: cell-based; details: 4 strains, read-out: Minimum Inhibitory Concentration
Method: as §1

[6] = Safe dosage based on the toxicity findings; details: in vivo
Method: as §4
Based on these finds a safe dosage for Miconazole is about 10 mg/kg, while a safe dosage for Sertaconzole is about 150 mg/kg, i.e about 15 times higher.

Swiss mice = details: mouse, in vivo
Excerpt: Such signs included convulsions and Straub tail(vertical righting of the tail).

[7] = system: Trichophyton menta-grophytes; assay: MIC by two-fold dilution, Trichophyton mentagrophytes; type: cell-based; details: 30 strains, read-out: Minimum Inhibitory Concentration
Method: as §1

Gram-positive germs = assay: MIC by two-fold dilution, Gram-positive germs; type: cell-based; details: 21 strains; read-out: Minimum Inhibitory Concentration

For `Clc1ccc(C(Cn2ccnc2)OCc2csc3c(Cl)cccc23)c(Cl)c1` (stereo not drawn) [Sertaconazole], the “Minimum Inhibitory Concentration” value (Malasezzia furfur) was 25/8, the MIC (Trichophyton rubrus) was 0.4 µg/mL (≈ 0.914 µM) and the “acute toxicity relative to Miconazole” value ([1]; oral and intraperitoneal routes) was “an order of magnitude less toxic”. For the same compound, the “acute toxicity relative to Miconazole” value ([1]; subcutaneous) was “significantly less”, the MIC (Candida albicans; Candida albicans, 52 strains, read-out: Minimum Inhibitory Concentration) was 6 µg/mL (≈ 13.7 µM) and the “increase of activity in comparison to Miconazole” value (from here on “increase of activity”) (Candida albicans; in vitro) was 43.9%. For the same compound, the MIC (Candida tropicalis) was 5.6 µg/mL (≈ 12.8 µM), the mortality (rats) was “no mortality was observed” and the NOAEL [2] was no less than 300 mg/kg. For the same compound, the “side effects (contact dermatitis)” value (cutaneous mycosis) was “no such side effects”, the “more effective than Miconazole” value (cutaneous mycosis; 28 days treatment) was 20.8% and the “% microbiological healing” value ([3]; 18 days postinfection) was 56%. The “Negative Cultures to Total Cultures” value ([3]; 18 days postinfection) was 27/48, the “% microbiological healing” value ([3]; 25 days postinfection) was 75% and the “Negative Cultures to Total Cultures” value ([3]; 25 days postinfection) was 36/48. The “% microbiological healing” value ([3]; 32 days postinfection) was 84%, the “Negative Cultures to Total Cultures” value ([3]; 32 days postinfection) was 40/48 and the “activity higher than Miconazole” value ([3]; 18th day postinfection) was 9 times. The “activity higher than Miconazole” value ([3]; 25th day postinfection) was 2.7 times, the “activity higher than Miconazole” value ([3]; 32nd day postinfection) was 1.9 times and the MIC ([4]; Scopulariopsis, 4 strains, read-out: Minimum Inhibitory Concentration) was 8 µg/mL (≈ 18.3 µM). The “increase of activity” value ([4]; in vitro) was 75%, the MIC (Candida s.p.; Candida, 15 strains, read-out: Minimum Inhibitory Concentration) was 0.5 µg/mL (≈ 1.14 µM) and the “increase of activity” value (Candida s.p.; in vitro) was 47.4%. It also gave an LD50 ([5]; ip, intraperitoneal) greater than 8000 mg/kg, an LD50 ([5]; oral) greater than 8000 mg/kg and an LD50 ([5]; sc, subcutaneous) greater than 8000 mg/kg. The MIC (Microsporum canis) was 2.8 µg/mL (≈ 6.4 µM), the “safe dosage higher than that of Miconazole” value [6] was “about 15 times” and the NOAEL ([6]; rat) was roughly 150 mg/kg. The “less toxic than Martin Compound 1” value (Swiss mice) was 8-15 times, the “signs of intoxication in the central nervous system (convulsions and Straub tail)” value (Swiss mice) was “not observed” and the LD0 (Swiss mice; ip) was 4000 mg/kg. It also gave an LD50 (Swiss mice; ip) of 8000 mg/kg, an MIC [7] of 2.6 µg/mL (≈ 5.94 µM) and an MIC (Gram-positive germs) of 0.97 µg/mL (≈ 2.22 µM).
